Eleven molecules from ChEMBL document CHEMBL1201862, “PubChem BioAssay data set” (2004) can be followed below.

SMILES strings stand for the structures.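 These data come from cells grown in 96-well plates and exposed to compound for 48 hours at five concentrations. GI50 is the concentration that inhibits growth by half.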 Calls of active or inactive are those of the source. Rule as the data show it: active = GI50 up to about 1.1 µM and inactive = higher.

Some test systems named below: OVCAR-5; SR; HT-29; NCI-H226; SK-MEL-5; IGROV-1; UACC-62; MOLT-4; SF-268; RXF 393; HCT-116; HOP-62; SNB-75; COLO 205; Malme-3M; OVCAR-3; SK-MEL-2; TK-10; UO-31.
Holding throughout (test): DTP human tumour cell line panel, 48 h

Usually GI50 stands for the concentration at which growth is held to half of that of the control. For `Cn1nc(-c2cccc(-c3nn(C)/c(=N\CCO)s3)n2)s/c1=N/CCO`, the GI50 in the assay on OVCAR-5, in the assay on SR, in the assay on HT-29, in the assay on NCI-H226, with SK-MEL-5 and with IGROV-1 was > 100 µM (inactive) in each case. Further, the GI50 in the assay with UACC-62, in the assay with MOLT-4, with SF-268, in the assay with RXF 393, in the assay on HCT-116 and with HOP-62 was > 100 µM (inactive) throughout. Also, the GI50 in the assay with SNB-75 and in the assay with COLO 205 was > 100 µM (inactive) each time.
With `C[n+]1ccc(-c2cc[n+](C)cc2)cc1` [PARAQUAT DICHLORIDE], the GI50 in the assay with OVCAR-5 was 19.7 µM (inactive); with SR, 11.6 µM (inactive); with Malme-3M it was 0.265 µM (active); with OVCAR-3, 14 µM (inactive); with HT-29, 10.8 µM (inactive); in the assay on NCI-H226, 8.43 µM (inactive). The GI50 in the assay on SK-MEL-5 is 11.5 µM (inactive); in the assay with IGROV-1 it was 18 µM (inactive); with UACC-62 it was 7.19 µM (inactive); with MOLT-4 it was > 34.5 µM (inactive); in the assay on SF-268 it was > 22.5 µM (inactive); in the assay on SK-MEL-2 it was 2.69 µM (inactive). Besides, the GI50 was 0.644 µM (active) in the assay on RXF 393; > 53.6 µM (inactive) in the assay on TK-10; 14.7 µM (inactive) in the assay with HOP-62; > 100 µM (inactive) with UO-31; 33.5 µM (inactive) in the assay on SNB-75; 14.8 µM (inactive) in the assay with COLO 205.
As to `O=C(CC(O)(c1ccccc1)c1ccc(Cl)cc1)NC(=O)c1ccccc1O` (configuration not stated), the GI50 was 1.99 µM (inactive) in the assay on OVCAR-5; 11.6 µM (inactive) with SR; 14.9 µM (inactive) with Malme-3M; 4.36 µM (inactive) with OVCAR-3; 18.8 µM (inactive) with HT-29; 7.87 µM (inactive) in the assay with NCI-H226. Moreover, the GI50 with SK-MEL-5 is 6.52 µM (inactive); with IGROV-1 it was 5.75 µM (inactive); in the assay on UACC-62, 6.04 µM (inactive); in the assay on MOLT-4, 10 µM (inactive); with SF-268, 7.28 µM (inactive); with SK-MEL-2, 5.3 µM (inactive). Besides, the GI50 with RXF 393 is 11.7 µM (inactive); with TK-10, 13.2 µM (inactive); with HCT-116, 11.7 µM (inactive); in the assay with HOP-62 it was 6.52 µM (inactive); with UO-31, 2.42 µM (inactive); in the assay with SNB-75 it was 6.44 µM (inactive). Also, in the assay with COLO 205, the GI50 is 14.4 µM (inactive).
As to `CC(=O)OC1(Sc2ccccc2)CC2[C@H]3COC(C)(C)O[C@H]3CC[C@@]2(C)CC1=O` (some centres not stated), the GI50 in the assay on OVCAR-5 was > 100 µM (inactive); with SR, 10 µM (inactive); in the assay with Malme-3M it was 99.3 µM (inactive); in the assay on OVCAR-3 it was 37.2 µM (inactive); with HT-29, 88.5 µM (inactive); with NCI-H226, 20.2 µM (inactive). Besides, the GI50 in the assay on SK-MEL-5 was 21.3 µM (inactive); in the assay on IGROV-1 it was 21.3 µM (inactive); in the assay with UACC-62, 30.1 µM (inactive); in the assay with MOLT-4 it was 9.95 µM (inactive); with SK-MEL-2, 81.8 µM (inactive); with RXF 393, 47.2 µM (inactive). Also, the GI50 with TK-10 was > 100 µM (inactive); in the assay on HCT-116, 65.3 µM (inactive); in the assay on UO-31 it was 19 µM (inactive); in the assay with SNB-75, 23.2 µM (inactive); in the assay with COLO 205, 26.9 µM (inactive).
For the molecule `CCCCCCCCOCC(O)CO` (configuration not stated), the GI50 in the assay on OVCAR-5 is > 100 µM (inactive); with SR it was 45.9 µM (inactive); in the assay on Malme-3M, > 100 µM (inactive); with OVCAR-3 it was > 100 µM (inactive); with HT-29, > 100 µM (inactive); in the assay with NCI-H226 it was 84.9 µM (inactive). For the same molecule, the GI50 in the assay on SK-MEL-5 was > 100 µM (inactive); in the assay on IGROV-1, > 100 µM (inactive); with UACC-62 it was > 100 µM (inactive); in the assay with MOLT-4, 44.7 µM (inactive); with SF-268, > 100 µM (inactive); with SK-MEL-2, > 100 µM (inactive). Also, the GI50 is > 100 µM (inactive) with RXF 393; > 100 µM (inactive) with TK-10; > 100 µM (inactive) with HCT-116; > 100 µM (inactive) with HOP-62; > 100 µM (inactive) in the assay with UO-31; 43.3 µM (inactive) with SNB-75. In the assay with COLO 205, the GI50 was > 100 µM (inactive).
As for `COc1cc2cnc3c4cc(OC)c(OC(C)C)cc4ccc3c2cc1OC`, the GI50 with OVCAR-5, with SR, with Malme-3M, in the assay on OVCAR-3, in the assay on HT-29 and with NCI-H226 was > 100 µM (inactive) in each case. For the same molecule, the GI50 with SK-MEL-5, with IGROV-1, with UACC-62, in the assay with MOLT-4, with SF-268 and in the assay on SK-MEL-2 was > 100 µM (inactive) throughout. The GI50 in the assay on RXF 393, in the assay on TK-10, in the assay with HCT-116, in the assay with HOP-62, in the assay with UO-31 and in the assay on SNB-75 was > 100 µM (inactive) each time. Moreover, in the assay on COLO 205, the GI50 is > 100 µM (inactive).
`COC(=O)n1c(CBr)c(Br)c2ccccc21`: the GI50 in the assay on OVCAR-5 was 30.6 µM (inactive); in the assay on SR, 24.8 µM (inactive); in the assay with Malme-3M, 79.6 µM (inactive); in the assay with OVCAR-3, 20.3 µM (inactive); in the assay with HT-29, 63.7 µM (inactive); with NCI-H226 it was 13.1 µM (inactive). Also, the GI50 is 51.5 µM (inactive) in the assay on SK-MEL-5; 20.9 µM (inactive) in the assay on IGROV-1; 28.1 µM (inactive) in the assay on UACC-62; 26.2 µM (inactive) in the assay with MOLT-4; 25.6 µM (inactive) in the assay with SF-268; 23.3 µM (inactive) in the assay on SK-MEL-2. Further, the GI50 is 33.1 µM (inactive) with TK-10; 39.4 µM (inactive) in the assay with HCT-116; 21.2 µM (inactive) with HOP-62; 18.2 µM (inactive) with UO-31; 10.8 µM (inactive) in the assay on SNB-75; > 100 µM (inactive) in the assay with COLO 205.
As for `CCOC(=O)CC[C@@H](NC(=O)c1ccc(N[C@@H]2c3cc4c(cc3C(c3cc(OC)c(O)c(OC)c3)C3C(=O)OC[C@@H]32)OCO4)cc1)C(=O)OCC` (some centres not stated), the GI50 was 0.0652 µM (active) in the assay with OVCAR-5; > 10 µM (inactive) in the assay on SR; 0.0995 µM (active) in the assay with Malme-3M; 0.143 µM (active) in the assay with OVCAR-3; 0.0427 µM (active) with HT-29; 0.0247 µM (active) with SK-MEL-5. In addition, the GI50 is 0.0706 µM (active) in the assay on IGROV-1; 0.0167 µM (active) in the assay with UACC-62; 0.00194 µM (active) with MOLT-4; 0.0208 µM (active) in the assay on SF-268; 0.0863 µM (active) in the assay on SK-MEL-2; 0.11 µM (active) in the assay on TK-10. For the same molecule, the 50% growth inhibitory concentration (GI50) in the assay with HOP-62 is 0.0127 µM (active); in the assay on UO-31 it was 0.0627 µM (active); in the assay on SNB-75 it was 0.0787 µM (active); in the assay on COLO 205, 0.119 µM (active).
For `COC1=NN2C(OC)(c3ccccc3)c3c(-c4ccccc4)sc(-c4ccccc4)c3C2(c2ccccc2)S1` (configuration not stated), the GI50 is > 100 µM (inactive) in the assay with OVCAR-5; > 100 µM (inactive) in the assay with SR; > 100 µM (inactive) in the assay on Malme-3M; > 10 µM (inactive) in the assay on OVCAR-3; > 100 µM (inactive) with HT-29; > 100 µM (inactive) in the assay with IGROV-1. In addition, the GI50 in the assay with UACC-62, in the assay on MOLT-4, in the assay on SF-268, in the assay on SK-MEL-2, with TK-10 and with HCT-116 was > 100 µM (inactive) each time. Besides, the GI50 in the assay with HOP-62 is > 10 µM (inactive); with UO-31, > 100 µM (inactive); with SNB-75 it was > 100 µM (inactive); in the assay with COLO 205, > 100 µM (inactive).
Regarding `CCCCCCCCCCCCCCCCCC(=O)OCC(C[As](=O)(O)O)OC(=O)CCCCCCCCCCCCCCCCC` (configuration not stated), the GI50 in the assay with OVCAR-5 was > 100 µM (inactive); with SR, 18.4 µM (inactive); in the assay with Malme-3M it was 30.1 µM (inactive); with OVCAR-3 it was 60.4 µM (inactive); in the assay with HT-29, 34.4 µM (inactive); in the assay on NCI-H226, 24.4 µM (inactive). Besides, the GI50 in the assay on SK-MEL-5 is > 100 µM (inactive); with IGROV-1 it was 52.5 µM (inactive); with UACC-62 it was > 100 µM (inactive); in the assay on MOLT-4, > 100 µM (inactive); in the assay with SF-268, 43.2 µM (inactive); in the assay on SK-MEL-2, 70.1 µM (inactive). Further, the GI50 with RXF 393 is 19.2 µM (inactive); in the assay with TK-10, 33.4 µM (inactive); with HCT-116, 60.1 µM (inactive); in the assay on HOP-62, 24.4 µM (inactive); with UO-31, > 100 µM (inactive); with SNB-75, 29.4 µM (inactive).
For `O=C(N/N=C1\C(=O)Nc2c(Cl)cc(Cl)cc21)C(=O)Nc1cccc(C(F)(F)F)c1`, the GI50 was > 100 µM (inactive) in the assay with OVCAR-5; 34.4 µM (inactive) in the assay on SR; > 100 µM (inactive) in the assay on Malme-3M; > 100 µM (inactive) in the assay with OVCAR-3; > 100 µM (inactive) in the assay on HT-29; > 100 µM (inactive) with NCI-H226. For the same molecule, the GI50 in the assay on SK-MEL-5 is > 100 µM (inactive); in the assay with IGROV-1, > 100 µM (inactive); in the assay on UACC-62 it was > 100 µM (inactive); in the assay with MOLT-4 it was 85.1 µM (inactive); in the assay with SK-MEL-2, > 100 µM (inactive); in the assay on RXF 393, > 100 µM (inactive). Besides, the GI50 with TK-10, with HCT-116, with HOP-62, with UO-31, with SNB-75 and in the assay with COLO 205 was > 100 µM (inactive) throughout.
